# According to patent publication US20220349887A1, “Compositions and Methods for Multiplex Detection of Microorganisms Using Peptide-Tagged Recombinant Infectious Agents” (priority 2021, published 2022):
# Legend:
# Assay in all cases: Antibiotic susceptibility testing in human blood: cefoxitin enrichment, then MP115.NL/SAPJV1.NL phage infection, luminescence
# Type in all cases: cell-based
# [1] = system: Methicillin-resistant Staphylococcus aureus (MRSA) ATCC BAA-1720; conditions: 41 CFU/Well
# Experimental: (§1) Methicillin-resistant Staphylococcus aureus (MRSA) strains (ATCC BAA-1720, CDC AR0480) and the methicillin-susceptible Staphylococcus aureus (MSSA) strain (ATCC 12600) were grown to log phase (OD600 ranged from 0.16 to 0.4) in tryptic soy broth (TSB). Cultures were diluted in TSB to obtain the desired burden, which was confirmed by plating on TSB agar for colony forming units (CFU). 50 μL of each dilution was added to test strips. When indicated, some strips contained bound anti-NANOLUC® antibody on medium-binding plates for capture. 85 μL, of either TSB or human blood diluted with TSB and sodium polyanethole sulfonate (SPS) was added. Human blood was collected from a single donor using sodium heparin as an anti-coagulant. Each well then received 15 μL of either TSB or 22 μg/mL cefoxitin (FOX) in TSB. The final concentration of each component in the well (150 μL volume) was 25% human blood, 0.0375% SPS, and 2.2 μg/mL FOX. Test strips were then sealed with cover film and incubated at 37° C. for two hours. After this selective enrichment, 20 μL of phage working stock was added to wells containing the TSB matrix. Phage working stock contained 8×10^7 plaque forming units per mL (pfu/mL) of MP115.NL and 6.9×10^8 pfu/mL of SAPJV1.NL. For wells containing blood matrix, 0.5 mg of recombinant Staphylococcal protein A (pro-356, Prospec, Ness-Ziona, Israel) per well was included within the 20 μL of phage working stock. Assay strips were once again sealed with cover film and incubated at 37° C. for three hours. Following infection, anti-NanoLuc capture and controls strips were washed three times with 300 μL PBS-T (10 mM sodium phosphate, 150 mM NaCl, 0.05% Tween 20, pH 7.4). Washes were conducted using an automatic plate washer (AccuWash, Thermo Fisher Scientific, Waltham, Mass., USA). 100 μL of NanoGlo buffer (Promega, Madison, Wisc., USA) containing 1 μL of NanoGlo substrate (Promega, Madison, Wisc., USA) was added to each well. “No wash+No Capture” strips were not washed and instead received 65 μL of a master mix containing 50 μL NanoGlo Buffer, 15 μL TSB, and 1 μL NanoGlo substrate. Following a 3 minute wait period, the signal output of each sample as relative light units (RLU) was determined using a GloMax Navigator (Promega, Madison, Wisc., USA). Signal over background (SB) was calculated by dividing the RLU from each sample from the RLU observed in the media control for that test matrix (Table 2).
# [2] = system: Methicillin-resistant Staphylococcus aureus (MRSA) CDC AR0480; conditions: 110 CFU/Well
# Experimental: as §1
# [3] = system: methicillin-susceptible Staphylococcus aureus (MSSA) ATCC 12600; conditions: 130 CFU/Well
# Experimental: as §1
# [4] = 5% BSA Blocked Strips, Blood + FOX 2.2 μg/mL
# [5] = 5% BSA Blocked Strips, TSB + FOX 2.2 μg/mL
# [6] = Anti-NanoLuc Capture Strips, Blood + FOX 2.2 μg/mL
# [7] = Anti-NanoLuc Capture Strips, TSB + FOX 2.2 μg/mL
# [8] = No Capture + No Wash, Blood + FOX 2.2 μg/mL
# [9] = No Capture + No Wash, TSB + FOX 2.2 μg/mL
compound,measurement,setting,value
"CO[C@@]1(NC(=O)Cc2cccs2)C(=O)N2C(C(=O)O)=C(COC(N)=O)CS[C@@H]21 [FOX, cefoxitin]",RLU,[1]; [4],12 RLU
same,S/B,[1]; [4],2
same,RLU,[1]; [5],20 RLU
same,S/B,[1]; [5],3
same,RLU,[1]; [6],63960 RLU
same,S/B,[1]; [6],3998
same,RLU,[1]; [7],79180 RLU
same,S/B,[1]; [7],1028
same,RLU,[1]; [8],9035 RLU
same,S/B,[1]; [8],177
same,RLU,[1]; [9],342000 RLU
same,S/B,[1]; [9],447
same,RLU,[2]; [4],3 RLU
same,S/B,[2]; [4],0
same,RLU,[2]; [5],53 RLU
same,S/B,[2]; [5],7
same,RLU,[2]; [6],6927 RLU
same,S/B,[2]; [6],433
same,RLU,[2]; [7],96650 RLU
same,S/B,[2]; [7],1255
same,RLU,[2]; [8],432 RLU
same,S/B,[2]; [8],8
same,RLU,[2]; [9],127000 RLU
same,S/B,[2]; [9],166
same,RLU,[3]; [4],10 RLU
same,S/B,[3]; [4],1
same,RLU,[3]; [5],6 RLU
same,S/B,[3]; [5],1
same,RLU,[3]; [6],18 RLU
same,S/B,[3]; [6],1
same,RLU,[3]; [7],80 RLU
same,S/B,[3]; [7],1
same,RLU,[3]; [8],103 RLU
same,S/B,[3]; [8],2
same,RLU,[3]; [9],988 RLU
same,S/B,[3]; [9],1
